Measured values reported in patent US6548518B2, “Methods of treating gastro-esophogeal reflux disease using (-) norcisapride in combination with proton pump inhibitors or H2 receptor antagonists” (Sepracor, Inc., priority 1999, dated 2003).

Key:
[1] = co-administration with ketoconazole; inhibition of metabolic elimination of cisapride; cited from earlier work
5-HT3 receptor = target: T1, 5-HT3 receptor (Mus musculus, UniProt P23979); assay: Radioligand binding to 5-HT3 receptor subtypes derived from N1E-115 cells (Cerep); conditions: Table 3; ratio of IC50 at 5-HT3 to IC50 at 5-HT4
T1 construct: host or cells: N1E-115 cells
T1 sequence (P23979 24-489): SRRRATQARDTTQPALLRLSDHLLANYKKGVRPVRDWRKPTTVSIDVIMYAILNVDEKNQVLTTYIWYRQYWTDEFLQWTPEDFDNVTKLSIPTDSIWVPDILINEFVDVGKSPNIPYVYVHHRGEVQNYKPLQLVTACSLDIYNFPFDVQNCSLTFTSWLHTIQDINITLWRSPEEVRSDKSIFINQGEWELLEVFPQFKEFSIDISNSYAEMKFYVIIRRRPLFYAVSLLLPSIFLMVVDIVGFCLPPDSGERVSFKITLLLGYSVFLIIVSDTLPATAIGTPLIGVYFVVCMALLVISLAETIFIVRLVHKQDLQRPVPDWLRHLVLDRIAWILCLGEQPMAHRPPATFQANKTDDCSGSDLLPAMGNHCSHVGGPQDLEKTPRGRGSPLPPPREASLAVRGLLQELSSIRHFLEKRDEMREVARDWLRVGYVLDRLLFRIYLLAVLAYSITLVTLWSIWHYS
Experimental: Following incubation with the appropriate ligands, the preparations were rapidly filtered under vacuum through GF/B glass fiber filters and washed with ice-cold buffer using a Brandel or Packard cell harvester.
Specific radioligand binding to the receptor was defined as the difference between total binding and nonspecific binding determined in the presence of an excess of unlabeled ligand. Results were expressed as a percent inhibition of specific binding obtained in the presence of the compounds.

SMILES | increase of the steady-state plasma levels [1] [fold] | 5-HT3/5-HT4 Ratio (5-HT3 receptor)
COc1cc(N)c(Cl)cc1C(=O)N[C@H]1CCN(CCCOc2ccc(F)cc2)C[C@H]1OC (racemic) [(±) Cisapride, cis-4-amino-5-chloro-N-[1-[3-(4-fluorophenoxy)propyl]-3-methoxy-4-piperidinyl]-2-methoxybenzamide] | 8 | –
COc1cc(N)c(Cl)cc1C(=O)NC1CCNCC1OC (single isomer, unassigned; (+)) [(+) Norcisapride] | – | 0.014
COc1cc(N)c(Cl)cc1C(=O)NC1CCNCC1OC (single isomer, unassigned; (-)) [(−) Norcisapride] | – | 0.023
COc1cc(N)c(Cl)cc1C(=O)NC1CCNCC1OC (racemic) [(±) Norcisapride, 4-amino-5-chloro-N-(3-methoxy-4-piperidinyl)-2-methoxybenzamide] | – | 0.012
